Where a name gives a salt, the structure may show the parent alone. Read-outs that look alike come from different tables or passages of the source. Values belong to the molecule of their own block, whether it stands above or below them.
System: Acinetobacter baumannii ATCC17978
Assay: Antimicrobial susceptibility testing: 90% growth inhibitory concentration (IC90) determination, Iso-Sensitest broth
Type: cell-based
Outline: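 A. baumannii ATCC17978 grown in Iso-Sensitest broth across 10 compound concentrations at 35±2 °C.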

[1] = Acinetobacter baumannii, ATCC17978, 16 h, read-out: ATCC17978 IC90, 90% growth inhibitory concentration, Acinetobacter baumannii ATCC17978, Iso-Sensitest broth, OD 600 nm over 16 h
[2] = read-out: ATCC17978 IC90, 90% growth inhibitory concentration, Acinetobacter baumannii ATCC17978, Iso-Sensitest broth, OD 600 nm over 16 h

Structure (SMILES): Cc1cc(Nc2nccn3c(-c4ccc(OC(F)F)cc4)cnc23)ccc1C(=O)N1CCC(C(=O)N2CCNC(C)(C)C2)CC1 [Example 323, [4-[[3-[4-(difluoromethoxy)phenyl]imi-dazo[1,2-a]pyrazin-8-yl]amino]-2-methylphenyl]-[4-(3,3-dimethylpiperazin-1-carbonyl)piperidin-1-yl]methanone; hydrochloride]
IC90 [1]: 300 nM

Structure (SMILES): Cc1cc(Nc2nccn3c(-c4ccc(OC(F)F)cc4)cnc23)ccc1C(=O)N1CCN(C(=O)C2(F)CCNCC2)CC1 [Example 324, [4-[[3-[4-(difluoromethoxy)phenyl]imi-dazo[1,2-a]pyrazin-8-yl]amino]-2-methylphenyl]-[4-(4-fluoropiperidine-4-carbonyl)piperazin-1-yl]methanone]
IC90 [1]: 330 nM

Structure (SMILES): Cc1cc(Nc2nccn3c(-c4ccc(OC(F)F)cc4)cnc23)ccc1C(=O)N1CCC(C(=O)N2CCCNCC2)CC1 [Example 325, [4-(1,4-diazepane-1-carbonyl)piperidin-1-yl]-[4-[[3-[4-(difluoromethoxy)phenyl]imi-dazo[1,2-a]pyrazin-8-yl]amino]-2-methylphenyl]methanone; hy-drochloride]
IC90 [1]: 340 nM

Structure (SMILES): Cc1cc(Nc2nccn3c(-c4ccc(OC(F)F)cc4)cnc23)ccc1C(=O)N1CCC(C(=O)N2C[C@@H](O)[C@@H](O)[C@@H](O)C2)CC1 [Example 326, [4-[[3-[4-(difluoromethoxy)phenyl]imi-dazo[1,2-a]pyrazin-8-yl]amino]-2-methylphenyl]-[4-[rac-(3R,5S)-3,4,5-trihydroxypiperidine-1-carbonyl]piperidin-1-yl]methanone]
IC90 [1]: 360 nM

Structure (SMILES): Cc1cc(Nc2nccn3c(-c4ccc(OC(F)F)cc4)cnc23)ccc1C(=O)N1CCN(C(=O)C[C@H](C)N)CC1 [Example 327, (3S)-3-amino-1-[4-[4-[[3-[4-(difluoromethoxy)phenyl]imi-dazo[1,2-a]pyrazin-8-yl]amino]-2-methylbenzoyl]piperazin-1-yl]butan-1-one; hydrochloride]
IC90 [1]: 380 nM

Structure (SMILES): COc1ccc(-c2cnc3c(Nc4ccc(C(=O)N5CCC(C(=O)NCC6CNC6)CC5)c(C)c4)nccn23)cc1F [Example 328, N-(azetidin-3-ylmethyl)-1-[4-[[3-(3-fluoro-4-methoxyphenyl)imidazo[1,2-a]pyrazin-8-yl]amino]-2-methylbenzoyl]piperidine-4-carboxamide; hydrochloride]
IC90 [1]: 390 nM

Structure (SMILES): Cc1cc(Nc2nccn3c(-c4ccc(OC(F)F)cc4)cnc23)ccc1C(=O)N1CCN(C(=O)CC(C)(C)N)CC1 [Example 329, 3-amino-1-[4-[4-[[3-[4-(difluoromethoxy)phenyl]imi-dazo[1.2-a]pyrazin-8-yl]amino]-2-methylbenzoyl]piperazin-1-yl]-3-methylbutan-1-one; hydrochloride]
IC90 [1]: 400 nM

Structure (SMILES): CCc1cc(Nc2nccn3c(-c4ccc(OC)c(F)c4)cnc23)ccc1C(=O)N1CCC(C(=O)NCCNC)CC1 [Example 330, 1-[2-ethyl-4-[[3-(3-fluoro-4-methoxyphenyl)imidazo[1,2-a]pyrazin-8-yl]amino]benzoyl]-N-[2-(methylamino)ethyl]piperidine-4-carboxamide; hydrochloride]
IC90 [1]: 400 nM

Structure (SMILES): CNCC(=O)N1CCN(C(=O)c2ccc(Nc3nccn4c(-c5ccc(OC(F)F)cc5)cnc34)cc2C)CC1 [Example 331, 1-[4-[4-[[3-[4-(difluoromethoxy)phenyl]imi-dazo[1,2-a]pyrazin-8-yl]amino]-2-methylbenzoyl]piperazin-1-yl]-2-(methylamino)ethanone]
IC90 [2]: 410 nM

Structure (SMILES): CNCCC(=O)N1CCN(C(=O)c2ccc(Nc3nccn4c(-c5ccc(OC(F)F)cc5)cnc34)cc2C)CC1 [Example 332, 1-[4-[4-[[3-[4-(difluoromethoxy)phenyl]imi-dazo[1,2-a]pyrazin-8-yl]amino]-2-methylbenzoyl]piperazin-1-yl]-3-(methylamino)propan-1-one; hydrochloride]
IC90 [1]: 410 nM

Structure (SMILES): Cc1cc(Nc2nccn3c(-c4ccc(OC(F)F)cc4)cnc23)ccc1C(=O)N1CCN(C(=O)CNC(=N)N)CC1 [Example 333, 1-[2-[4-[4-[[3-[4-(difluoromethoxy)phenyl]imi-dazo[1,2-a]pyrazin-8-yl]amino]-2-methylbenzoyl]piperazin-1-yl]-2-oxoethyl]guanidine]
IC90 [2]: 410 nM

Structure (SMILES): CN[C@H](C)C(=O)N1CCN(C(=O)c2ccc(Nc3nccn4c(-c5ccc(OC(F)F)cc5)cnc34)cc2C)CC1 [Example 334, (2R)-1-[4-[4-[[3-[4-(difluoromethoxy)phenyl]imi-dazo[1,2-a]pyrazin-8-yl]amino]-2-methylbenzoyl]piperazin-1-yl]-2-(methylamino)propan-1-one; hydrochloride]
IC90 [1]: 430 nM

Structure (SMILES): Cc1cc(Nc2nccn3c(-c4ccc(OC(F)F)cc4)cnc23)ccc1C(=O)N1CCN(C(=O)C2CNC2)CC1 [Example 335, [4-(azetidine-3-carbonyl)piperazin-1-yl]-[4-[[3-[4-(difluoromethoxy)phenyl]imi-dazo[1,2-a]pyrazin-8-yl]amino]-2-methylphenyl]methanone; hy-drochloride]
IC90 [1]: 450 nM

Structure (SMILES): Cc1cc(Nc2nccn3c(-c4ccc(OC(F)F)cc4)cnc23)ccc1C(=O)N1CCN(C(=O)C[C@@H]2CCCN2)CC1 [Example 336, 1-[4-[4-[[3-[4-(difluoromethoxy)phenyl]imi-dazo[1,2-a]pyrazin-8-yl]amino]-2-methylbenzoyl]piperazin-1-yl]-2-[(2S)-pyrrolidin-2-yl]ethanone]
IC90 [1]: 460 nM

Structure (SMILES): Cc1cc(Nc2nccn3c(-c4ccc(OC(F)F)cc4)cnc23)ccc1C(=O)N1CCN(C(=O)c2ccc(CN3CCNCC3)cc2)CC1 [Example 337, [4-[4-[[3-[4-(difluoromethoxy)phenyl]imi-dazo[1,2-a]pyrazin-8-yl]amino]-2-methylbenzoyl]piperazin-1-yl]-[4-(piperazin-1-ylmethyl)phenyl]methanone; hydrochloride]
IC90 [1]: 470 nM

Structure (SMILES): CC(=O)NCCCC[C@H](N)C(=O)N1CCN(C(=O)c2ccc(Nc3nccn4c(-c5ccc(OC(F)F)cc5)cnc34)cc2C)CC1 [Example 338, N-[(5S)-5-amino-6-[4-[4-[[3-[4-(difluoromethoxy)phenyl]imi-dazo[1,2-a]pyrazin-8-yl]amino]-2-methylbenzoyl]piperazin-1-yl]-6-oxohexyl]acetamide; hydrochloride]
IC90 [1]: 480 nM

Structure (SMILES): Cc1cc(Nc2nccn3c(-c4ccc(OC(F)F)cc4)cnc23)ccc1C(=O)N1CCN(C(=O)C(C)(C)N)CC1 [Example 339, 2-amino-1-[4-[4-[[3-[4-(difluoromethoxy)phenyl]imi-dazo[1,2-a]pyrazin-8-yl]amino]-2-methylbenzoyl]piperazin-1-yl]-2-methylpropan-1-one; hydrochloride]
IC90 [1]: 500 nM

IC90 (90% growth inhibitory concentration, Acinetobacter baumannii ATCC17978, Iso-Sensitest broth, OD 600 nm over 16 h, read-out: ATCC17978 IC90): 500 nM
Structure (SMILES): COc1ccc(-c2cnc3c(Nc4ccc(C(=O)N5CCC(CN)CC5)c(C(F)F)c4)nccn23)cc1F [Example 340, [4-(aminomethyl)piperidin-1-yl]-[2-(difluoromethyl)-4-[[3-(3-fluoro-4-methoxyphenyl)imidazo[1,2-a]pyrazin-8-yl]amino]phenyl]methanone]

Structure (SMILES): Cc1cc(Nc2nccn3c(-c4ccc(OC(F)F)cc4)cnc23)ccc1C(=O)N1CCN(C(=O)[C@@H]2CNCCO2)CC1 [Example 341, [4-[[3-[4-(difluoromethoxy)phenyl]imi-dazo[1,2-a]pyrazin-8-yl]amino]-2-methylphenyl]-[4-[(2S)-morpholine-2-carbonyl]piperazin-1-yl]methanone; hydrochloride]
IC90 [1]: 520 nM

Structure (SMILES): CCC[C@@H](N)C(=O)N1CCN(C(=O)c2ccc(Nc3nccn4c(-c5ccc(OC(F)F)cc5)cnc34)cc2C)CC1 [Example 342, (2R)-2-amino-1-[4-[4-[[3-[4-(difluoromethoxy)phenyl]imi-dazo[1,2-a]pyrazin-8-yl]amino]-2-methylbenzoyl]piperazin-1-yl]pentan-1-one; hydrochloride]
IC90 [1]: 550 nM

Structure (SMILES): CCC[C@H](N)C(=O)N1CCN(C(=O)c2ccc(Nc3nccn4c(-c5ccc(OC(F)F)cc5)cnc34)cc2C)CC1 [Example 343, (2S)-2-amino-1-[4-[4-[[3-[4-(difluoromethoxy)phenyl]imi-dazo[1,2-a]pyrazin-8-yl]amino]-2-methylbenzoyl]piperazin-1-yl]pentan-1-one]
IC90 [1]: 560 nM

Structure (SMILES): CCC(N)C(=O)N1CCN(C(=O)c2ccc(Nc3nccn4c(-c5ccc(OC(F)F)cc5)cnc34)cc2C)CC1 (centres unmarked) [Example 344, 2-amino-1-[4-[4-[[3-[4-(difluoromethoxy)phenyl]imi-dazo[1,2-a]pyrazin-8-yl]amino]-2-methylbenzoyl]piperazin-1-yl]butan-1-one; hydrochloride]
IC90 [1]: 560 nM

Structure (SMILES): Cc1cc(Nc2nccn3c(-c4ccc(OC(F)F)cc4)cnc23)ccc1C(=O)N1CCN(C(=O)CNC(=O)CN)CC1 [Example 345, 2-amino-N-[2-[4-[4-[[3-[4-(difluoromethoxy)phenyl]imi-dazo[1,2-a]pyrazin-8-yl]amino]-2-methylbenzoyl]piperazin-1-yl]-2-oxoethyl]acetamide]
IC90 [1]: 570 nM

Structure (SMILES): Cc1cc(Nc2nccn3c(-c4ccc(OC(F)F)cc4)cnc23)ccc1C(=O)N1CCN(C(=O)C(O)CO)CC1 (centres unmarked) [Example 346, 1-[4-[4-[[3-[4-(difluoromethoxy)phenyl]imi-dazo[1,2-a]pyrazin-8-yl]amino]-2-methylbenzoyl]piperazin-1-yl]-2,3-dihydroxypropan-1-one]
IC90 [1]: 620 nM

Structure (SMILES): Cc1cc(Nc2nccn3c(-c4ccc(OC(F)F)cc4)cnc23)ccc1C(=O)N1CCN(C(=O)CN2CCNCC2)CC1 [Example 347, 1-[4-[4-[[3-[4-(difluoromethoxy)phenyl]imi-dazo[1,2-a]pyrazin-8-yl]amino]-2-methylbenzoyl]piperazin-1-yl]-2-piperazin-1-ylethanone]
IC90 [1]: 650 nM

Structure (SMILES): COc1ccc(-c2cnc3c(Nc4ccc(C(=O)N5CCN(C6CCNC6)CC5)c(C)c4)nccn23)cc1F (centres unmarked) [Example 348, [4-[[3-(3-fluoro-4-methoxyphenyl)imidazo[1,2-a]pyrazin-8-yl]amino]-2-methylphenyl]-(4-pyrrolidin-3-ylpiperazin-1-yl)methanone; hydrochloride]
IC90 [1]: 660 nM
